According to US9133439B2, “Differentiation of human embryonic stem cells” (Janssen Biotech, Inc., priority 2009, dated 2015):
Values joined by “and” are separate entries in the source; they are usually repeats but may differ in a detail not shown here. Identical values can stand only once. Like-named read-outs stand apart in the source and are kept apart here.

How the values were obtained:
[1] = tested on: H1 human embryonic stem cells (differentiated); assay: Example 3: confirmation screen, total cell number (nuclei) by high content analysis; assay type: cell-based; conditions: relative to control treatment
Source text: All wells were fed and treated identically.

[2] = tested on: H1 human embryonic stem cells (differentiated); assay type: cell-based
[3] = 2.5 uM, steps 3 and 4, triplicate
[4] = ratio for well treated with individual compound relative to average of wells with DMSO alone

Row | Compound | Total Nuclei [2, 4] | further results
1 | N#C/C(=C/c1ccc(O)c(O)c1)C(=O)NCc1ccccc1 [AG-490] | 1.04 | Total Nuclei Ratio [1, 3]: 0.99
2 | OC[C@H]1O[C@@H](n2cnc3cc(Cl)c(Cl)cc32)[C@H](O)[C@@H]1O [DRB, 5,6-Dichloro-1-b-D-ribofuranosylbenzimidazole] | 1.01 | 
3 | CC(=O)c1c(O)c(C)c(O)c(Cc2c(O)c3c(c(C(=O)/C=C/c4ccccc4)c2O)OC(C)(C)C=C3)c1O [Rottlerin] | 0.24 | 
4 | Cc1cc(O)c2c(=O)c3c(O)cc(O)c4c5c(O)cc(O)c6c(=O)c7c(O)cc(C)c8c1c2c(c34)c(c78)c65 [Hypericin] | 1.07 | 
5 | O.O.O=c1c(O)c(-c2ccc(O)c(O)c2)oc2cc(O)cc(O)c12 [Quercetin dihydrate] | 0.97 | 
6 | N#C/C(=C\c1ccc(O)c(O)c1)C(N)=S [Tyrphostin 47] | 1.00 | 
7 | O=C1Cc2c([nH]c3ccc(Br)cc23)-c2ccccc2N1 [Kenpaullone] | 0.99 | Total Nuclei Ratio [1, 3]: 1.02
8 | Cl.Cl.O=S(=O)(NCCNC/C=C/c1ccc(Br)cc1)c1cccc2cnccc12 [H-89] | 1.09 | Total Nuclei Ratio [1, 3]: 1.08
9 | O=S(=O)(c1cccc2cnccc12)N1CCCNCC1 [HA-1077] | 1.02 | Total Nuclei Ratio [1, 3]: 1.07
10 | N#CC(C#N)=Cc1ccc(O)c(O)c1 [Tyrphostin 23] | 1.03 | 
11 | CN(C)CCCn1cc(C2=C(c3c[nH]c4ccccc34)C(=O)NC2=O)c2ccccc21 [GF 109203X] | 1.05 | Total Nuclei Ratio [1, 3]: 0.82
12 | Oc1c2ccccc2c2c3c(cccc13)N=N2 [SP 600125] | 1.04 | 
13 | Cc1ccc(NC(=O)c2cccc(N(C)C)c2)cc1NC(=O)c1ccc(O)cc1 [ZM 336372] | 1.06 | 
14 | CC[C@H](CO)Nc1nc(NCc2ccccc2)c2ncn(C(C)C)c2n1 [Roscovitine] | 1.03 | 
15 | Indirubin-3′-monoxime | 0.96 | 
16 | Nc1ncnc2c1c(I)cn2[C@@H]1O[C@H](CO)[C@@H](O)[C@H]1O [5-Iodotubercidin] | 0.08 | 
17 | CN([C@@H](Cc1ccc(OS(=O)(=O)c2cccc3cnccc23)cc1)C(=O)N1CCN(c2ccccc2)CC1)S(=O)(=O)c1cccc2cnccc12 [KN-62] | 0.96 | Total Nuclei Ratio ([1]; 1 uM, steps 3 and 4): 1.02 and 1.03
18 | O=C1Nc2ccccc2/C1=C1/Nc2ccccc2C1=O [Indirubin] | 1.01 | 
19 | O=c1c(-c2ccc(O)cc2)coc2cc(O)ccc12 [Daidzein] | 1.03 | 
20 | Cn1cnc2nc(NCCO)nc(NCc3ccccc3)c21 [iso-Olomoucine] | 1.04 | 
21 | N#CC(C#N)=Cc1cc(O)c(O)c([N+](=O)[O-])c1 [Tyrphostin AG 1288] | 1.04 | 
22 | O=c1c(-c2ccc(O)cc2)coc2cc(O)cc(O)c12 [Genistein] | 1.03 | 
23 | O=S(=O)(c1cccc2c(I)cccc12)N1CCCNCC1 [ML-7] | 0.98 | 
24 | CC(C)c1cc(/C=C(\C#N)C(=O)NCCCc2ccccc2)cc(C(C)C)c1O [SU1498] | 1.01 | 
25 | NC(N)=NCCNS(=O)(=O)c1cccc2cnccc12 [HA-1004] | 1.08 | Total Nuclei Ratio [1, 3]: 1.08
26 | CN(C)c1ccc(C=C2C(=O)Nc3ccccc32)cc1 [SU 4312] | 1.07 | 

Row | Compound | Total Nuclei [2, 4] | further results
27 | N#C/C(=C\c1ccc(O)c(O)c1)C(N)=O [Tyrphostin 46] | 1.05 | 
28 | O=c1cc(N2CCOCC2)oc2c(-c3ccccc3)cccc12 [LY 294002] | 1.08 | Total Nuclei Ratio [1, 3]: 1.03
29 | CC(C)n1cnc2c(NCc3ccccc3)nc(NCCO)nc21 [N9-Isopropyl-olomoucine] | 1.05 | 
30 | Cc1cc2ncc(-c3ccccc3)nc2cc1C [Tyrphostin AG 1295] | 1.08 | 
31 | C=CC(=O)c1ccc2ccccc2c1 [ZM 449829] | 1.01 | 
32 | N#CC(=C(/N)Sc1ccccc1N)/C(C#N)=C(\N)Sc1ccccc1N [U-0126] |  | Total Nuclei [2]: 0.87
33 | C#Cc1cccc(Nc2ncnc3cc(OC)c(OC)cc23)c1 [BML-265] | 1.06 | Total Nuclei Ratio [1, 3]: 0.97
34 | COc1cccc(-c2cc(=O)c3ccccc3o2)c1N [PD-98059] | 0.92 | Total Nuclei Ratio [1, 3]: 0.96
35 | O=C1Nc2ccc(I)cc2/C1=C/c1cc(Br)c(O)c(Br)c1 [GW 5074] | 1.06 | Total Nuclei Ratio [1, 3]: 1.11
36 | N#C/C(=C\c1cc(Cl)cc(Cl)c1)c1cccnc1 [RG-14620] | 1.02 | 
37 | CNCCNS(=O)(=O)c1cccc2cnccc12 [H-8] | 0.99 | 
38 | NCCNS(=O)(=O)c1cccc2cnccc12 [H-9] | 1.00 | Total Nuclei Ratio [1, 3]: 1.13
39 | CN[C@@H]1C[C@H]2O[C@@](C)([C@@H]1OC)n1c3ccccc3c3c4c(c5c6ccccc6n2c5c31)C(=O)NC4 [Staurosporine] | 0.13 | 
40 | Cc1ccc(-c2nn(C(C)(C)C)c3ncnc(N)c23)cc1 [PP1] | 0.99 | 
41 | C[C@@H](N)[C@H]1CC[C@H](C(=O)Nc2ccncc2)CC1 [Y-27632] | 1.08 | 
42 | Cc1ccc(S(=O)(=O)/C=C/C#N)cc1 [BAY 11-7082] | 0.93 | 
43 | CO[C@H]1C[C@@H]2CC[C@@H](C)[C@@](O)(O2)C(=O)C(=O)N2CCCC[C@H]2C(=O)O[C@H]([C@H](C)C[C@@H]2CC[C@@H](O)[C@H](OC)C2)CC(=O)[C@H](C)/C=C(\C)[C@@H](O)[C@@H](OC)C(=O)[C@H](C)C[C@H](C)/C=C/C=C/C=C/1C [Rapamycin] | 0.47 | 
44 | N#CC(C#N)=Cc1cc(O)c(O)c(O)c1 [Tyrphostin 25] | 1.02 | 
45 | CC1CNCCN1S(=O)(=O)c1cccc2cnccc12 (stereo not shown) [H-7] | 1.02 | Total Nuclei Ratio [1, 3]: 1.09
46 | Nc1ncc2[nH]cnc2n1 [2-Aminopurine] | 1.07 | 
47 | COc1cc(/C=C(\C#N)C(N)=O)cc(CSc2nc3ccccc3s2)c1O [AG-825] | 1.05 | 
48 | O=C(O)c1cc(N(Cc2ccccc2O)Cc2cc(O)ccc2O)ccc1O [Lavendustin A] | 1.02 | 
49 | COC[C@H]1OC(=O)c2coc3c2[C@@]1(C)C1=C(C3=O)[C@@H]2CCC(=O)[C@@]2(C)C[C@H]1OC(C)=O [Wortmannin] | 1.10 | 
50 | COc1cc2ncnc(Nc3cccc(Cl)c3)c2cc1OC [Tyrphostin AG 1478] | 1.10 | 
51 | N#CC(C#N)=Cc1ccc([N+](=O)[O-])c(O)c1 [AG-126] | 0.99 | 
52 | Oc1ccc(-c2nc(-c3ccc(F)cc3)c(-c3ccncc3)[nH]2)cc1 [SB-202190] | 1.08 | Total Nuclei Ratio [1, 3]: 1.08

Row | Compound | Total Nuclei [2, 4] | further results
53 | COC(=O)/C=C/c1cc(O)ccc1O [Erbstatin analog] | 0.82 | 
54 | CC1=C(O)C(=O)[C@@H]2O[C@@H]2C1=O [Terreic acid] | 1.02 | 
55 | COc1ccc(S(=O)(=O)N(CCO)c2ccccc2CN(C)CC=Cc2ccc(Cl)cc2)cc1 [KN-93] | 1.04 | Total Nuclei Ratio ([1]; 1 uM, steps 3 and 4): 1.05 and 1.04
56 | N#CC(=Cc1ccc2[nH]ccc2c1)C(N)=C(C#N)C#N [AG-370] | 1.01 | 
57 | N#C/C(=C\c1ccc(O)c(O)c1)C(=O)Nc1ccccc1 [AG-494] | 1.10 | 
58 | CC(C)c1cnc(NC(=O)Cc2ccccc2)s1 [BML-259] | 1.04 | Total Nuclei Ratio [1, 3]: 0.99
59 | O=C(O)c1cc(NCc2cc(O)ccc2O)ccc1O [HDBA, 2-Hydroxy-5-(2,5-dihydroxybenzylamino)benzoic acid] | 0.99 | 
60 | Cn1cnc2c(NCc3ccccc3)nc(NCCO)nc21 [Olomoucine] | 1.04 | 
61 | C[S+]([O-])c1ccc(-c2nc(-c3ccc(F)cc3)c(-c3ccncc3)[nH]2)cc1 (stereo not shown) [SB-203580] | 1.07 | Total Nuclei Ratio [1, 3]: 1.05
62 | CS(=O)(=O)O.Cn1cc(C2=C(c3cn(CCCSC(=N)N)c4ccccc34)C(=O)NC2=O)c2ccccc21 [Ro 31-8220] | 0.09 | 
63 | CO[C@@H]1[C@H](N(C)C(=O)c2ccccc2)C[C@H]2O[C@]1(C)n1c3ccccc3c3c4c(c5c6ccccc6n2c5c31)C(=O)NC4 [PKC-412] | 0.17 | 
64 | CC(C)(C)n1nc(-c2ccc(Cl)cc2)c2c(N)ncnc21 [PP2] | 1.01 | 
65 | O=C(O)c1ccc2nc(-c3ccccc3)c(-c3ccccc3)nc2c1 [BML-257] | 0.98 | 
66 | O=c1cc(-c2ccc(O)cc2)oc2cc(O)cc(O)c12 [Apigenin] | 1.05 | 
67 | Oc1cc(O)cc(/C=C/c2ccc(O)c(O)c2)c1 [Piceatannol] | 1.07 | 
68 | COCc1cc(O)c(O)c(O)c1-c1c(COC)cc(O)c(O)c1O [HBDDE, 2,2′,3,3′,4,4′-Hexahydroxy-1,1′-biphenyl-6,6′-dimethanol dimethyl ether] | 1.07 | 
69 | O=P(O)(O)C(O)c1ccc2ccccc2c1 (stereo not shown) [HNMPA, Hydroxy-2-naphthalenylmethylphosphonic acid] | 1.01 | 
70 | Cl.O=S(=O)(c1cccc2c(Cl)cccc12)N1CCCNCC1 [ML-9] | 1.06 | 
71 | N#CC(C#N)=C(N)/C(C#N)=C/c1cc(O)c(O)c(O)c1 [Tyrphostin 51] | 1.04 | 
72 | C/C(O)=C(\C#N)C(=O)Nc1cc(Br)ccc1Br [LFM-A13] | 0.97 | 
73 | CC(C)(C)c1cc(C=C(C#N)C#N)cc(C(C)(C)C)c1O [Tyrphostin 9] | 0.28 | 
74 | CC(C)(C)c1cc(/C=C(\C#N)C(N)=S)cc(C(C)(C)C)c1O [AG-879] | 1.03 | 
75 | COc1cc2ncc(-c3ccccc3)nc2cc1OC [AG-1296] | 1.09 | 
76 | CCCCCCCCCCCCCCCC(=O)OC(CC(=O)O)C[N+](C)(C)C.[Cl-] (racemic) [Palmitoyl-DL-carnitine Cl] | 1.05 | 
77 | CCCCCCCCCCCCC/C=C/[C@@H](O)[C@@H](N)CO [Sphingosine] | 1.04 | 
